The values below come from PMC10985906, “Anticholinesterase activities of novel isoindolin-1,3-dione-based acetohydrazide derivatives: design, synthesis, biological evaluation, molecular dynamic study” (BMC Chemistry, 2024).

The test system of one assay is hBACE-1. The settings on record: at 50 µM; previously reported; cited from earlier work.
The next assay has as its system Aß-aggregation. Particulars: at 10 µM; previously reported; cited from earlier work.
Assay [1] concerns the target T1, BChE (Homo sapiens, UniProt P06276). The settings on record: at 10 µM; previously reported; cited from earlier work.
In assay [2] the target is T2, AChE (Homo sapiens, UniProt P22303). The experiment in a line: biochemical. The settings on record: mean ± SD; modified Ellman, 37 °C, pH 7.4. A general note: In Ellman's method for cholinesterases, released thiocholine reacts with DTNB.
T2 sequence (P22303 32-614): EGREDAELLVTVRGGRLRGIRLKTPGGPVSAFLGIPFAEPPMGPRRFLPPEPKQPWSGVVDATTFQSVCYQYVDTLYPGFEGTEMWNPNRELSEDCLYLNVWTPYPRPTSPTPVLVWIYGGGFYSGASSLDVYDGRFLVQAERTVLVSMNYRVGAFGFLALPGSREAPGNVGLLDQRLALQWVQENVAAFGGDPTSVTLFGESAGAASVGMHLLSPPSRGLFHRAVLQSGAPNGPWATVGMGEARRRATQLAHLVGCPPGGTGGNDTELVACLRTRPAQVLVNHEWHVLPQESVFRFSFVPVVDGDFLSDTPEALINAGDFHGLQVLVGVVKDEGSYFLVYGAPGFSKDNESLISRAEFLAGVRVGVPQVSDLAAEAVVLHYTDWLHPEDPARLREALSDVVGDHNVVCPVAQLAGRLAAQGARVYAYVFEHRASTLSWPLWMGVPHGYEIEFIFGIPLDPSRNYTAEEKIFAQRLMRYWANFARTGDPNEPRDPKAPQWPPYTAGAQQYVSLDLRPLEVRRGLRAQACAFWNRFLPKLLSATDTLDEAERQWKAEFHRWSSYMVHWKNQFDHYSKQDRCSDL
The target of assay [3] is T1, BChE. The experiment in a line: biochemical. The settings on record: mean ± SD; modified Ellman, 37 °C, pH 7.4.
The target in assay [4] is T2, AChE. As to the kind of experiment: Enzyme kinetics against AChE (Lineweaver–Burk). It counts as biochemical. The protocol: (§1) The ChE inhibition reactions were determined by Ellman’s assay at different concentrations of 8a and 8g. […]. The inhibition constant Ki was calculated by the plot of slopes versus the corresponding concentrations of the inhibitors.
Assay [5] addresses T1, BChE. The experiment in a line: Enzyme kinetics against BChE (Lineweaver–Burk). It counts as biochemical. Here is the method:
as §1

Assay [6] deals with T1, BChE. The settings on record: previously reported; cited from earlier work.
The mark [7] stands for this setting: secondary plot of Lineweaver–Burk plots.

Where two headings read alike, the source gives them in different places.

T1 sequence (P06276 29-602): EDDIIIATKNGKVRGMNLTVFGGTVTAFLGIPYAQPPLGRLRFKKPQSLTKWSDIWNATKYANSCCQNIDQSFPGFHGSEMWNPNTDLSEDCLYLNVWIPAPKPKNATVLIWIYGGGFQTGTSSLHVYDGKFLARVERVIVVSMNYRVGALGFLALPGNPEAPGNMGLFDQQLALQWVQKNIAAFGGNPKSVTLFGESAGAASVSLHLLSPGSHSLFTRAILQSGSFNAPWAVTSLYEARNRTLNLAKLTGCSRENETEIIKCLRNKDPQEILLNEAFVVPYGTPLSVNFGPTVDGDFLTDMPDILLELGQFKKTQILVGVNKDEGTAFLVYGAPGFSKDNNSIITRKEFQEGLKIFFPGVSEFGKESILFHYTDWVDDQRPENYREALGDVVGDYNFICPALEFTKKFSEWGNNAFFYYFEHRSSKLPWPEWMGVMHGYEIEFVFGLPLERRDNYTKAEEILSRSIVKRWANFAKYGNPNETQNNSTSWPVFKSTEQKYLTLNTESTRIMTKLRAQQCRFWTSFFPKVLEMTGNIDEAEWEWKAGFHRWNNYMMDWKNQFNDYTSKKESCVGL

For “2-(benzylamino-2-hydroxyalkyl)isoindoline-1,3-dione”, in the assay on hBACE-1, the hBACE-1 inhibition is recorded as 43.7%. Moreover, the Aß-aggregation inhibition in the assay on Aß-aggregation was 24.9%. In addition, the BChE inhibition at BChE [1] is reported as 14.1% ± 5.8.

Regarding `CN(CC(=O)NN=Cc1ccccc1OCCCN1C(=O)c2ccccc2C1=O)Cc1ccccc1` [Compound 8a, 2-(benzyl(methyl)amino)-Nʹ-(2-(3-(1,3-dioxoisoindolin-2-yl)propoxy)benzylidene)acetohydrazide], the IC50 at AChE [2] came to 110 ± 50 nM; against BChE [3] it was 30200 ± 2800 nM. Also, at AChE [4] (Lineweaver–Burk plot), the “mode of inhibition against AChE” value is “competitive”. Besides, the inhibitory constant (Ki) at AChE [4] (setting [7]) is 88.6 nM.

Consider `CCN(CC(=O)NN=Cc1ccccc1OCCCN1C(=O)c2ccccc2C1=O)Cc1ccccc1` [Compound 8b, 2-(benzyl(ethyl)amino)-Nʹ-(2-(3-(1,3-dioxoisoindolin-2-yl)propoxy)benzylidene)acetohydrazide], for which the results for the IC50 against AChE [2] and against BChE [3] were 180 ± 10 nM and 26800 ± 800 nM, respectively.

Take `CCN(CC(=O)NN=Cc1cc([N+](=O)[O-])ccc1OCCCN1C(=O)c2ccccc2C1=O)Cc1ccccc1` [Compound 8c, 2-(benzyl(ethyl)amino)-Nʹ-(2-(3-(1,3-dioxoisoindolin-2-yl)propoxy)-5-nitrobenzylidene)acetohydrazide]: the values for the IC50 against AChE [2] and at BChE [3] were 160 ± 40 nM and 21800 ± 1300 nM, respectively.

Turning to `CCN(CC(=O)NN=Cc1cccc(OCCCN2C(=O)c3ccccc3C2=O)c1)Cc1ccccc1` [Compound 8d, 2-(benzyl(ethyl)amino)-N'-(3-(3-(1,3-dioxoisoindolin-2-yl)propoxy)benzylidene)acetohydrazide], the IC50 was found to be 160 ± 30 nM against AChE [2] and 11800 ± 500 nM at BChE [3].

For `CCN(CC(=O)NN=Cc1ccc(OC)c(OCCCN2C(=O)c3ccccc3C2=O)c1)Cc1ccccc1` [Compound 8e, 2-(benzyl(ethyl)amino)-Nʹ-(3-(3-(1,3-dioxoisoindolin-2-yl)propoxy)-4-methoxybenzylidene)acetohydrazide], the IC50 against AChE [2] stood at 210 ± 30 nM; against BChE [3], 14700 ± 200 nM.

As for `CN(CC(=O)NN=Cc1ccc(OCCCN2C(=O)c3ccccc3C2=O)cc1)Cc1ccccc1` [Compound 8f, 2-(benzyl(methyl)amino)-Nʹ-(4-(3-(1,3-dioxoisoindolin-2-yl)propoxy)benzylidene)acetohydrazide], the IC50 against AChE [2] is 320 ± 20 nM; on BChE [3], 15700 ± 1200 nM.

On to `CCN(CC(=O)NN=Cc1ccc(OCCCN2C(=O)c3ccccc3C2=O)cc1)Cc1ccccc1` [Compound 8g, 2-(benzyl(ethyl)amino)-Nʹ-(4-(3-(1,3-dioxoisoindolin-2-yl)propoxy)benzylidene)acetohydrazide], for which the IC50 on AChE [2] amounted to 860 ± 20 nM; against BChE [3], 5700 ± 200 nM. Further, the “mode of inhibition against BChE” value on BChE [5] (Lineweaver–Burk plot) is “competitive”. Moreover, on BChE [5] (setting [7]), the inhibition constant (Ki) is 3650 nM.

Take `CCN(CC(=O)NN=Cc1ccc(OCCCN2C(=O)c3ccccc3C2=O)c(OC)c1)Cc1ccccc1` [Compound 8h, 2-(benzyl(ethyl)amino)-Nʹ-(4-(3-(1,3-dioxoisoindolin-2-yl)propoxy)-3-methoxybenzylidene)acetohydrazide]: the half-maximal inhibitory concentration (IC50) on AChE [2] was 170 ± 60 nM; at BChE [3], 13200 ± 1400 nM.

Consider `CN(C)C(=O)Oc1cccc([N+](C)(C)C)c1` [neostigmine], for which the IC50 at BChE [6] is 84 nM.

On to `Oc1ccc(/C=C/c2cc(O)cc(O)c2)cc1` [resveratrol], for which the Aß-aggregation inhibition in the assay with Aß-aggregation was 78.5% ± 5.2.

In general, IC50 refers to the concentration that inhibits the measured activity by half. One may read the Ki as the equilibrium dissociation constant of an inhibitor or competing ligand from its target. Read a low Ki as a stronger hold on the target.
